Where a name gives a salt, the structure may show the parent alone.
How the values were obtained:
[1] = tested on: phosphorylation of Serine 473 in Akt (MDA-MB-468 cells); experiment: Test (c) In Vitro phospho-Ser473 Akt Assay; format: cell-based; details: Homo sapiens, read-out: IC50 versus Serine 473 in Akt
Experimental: This assay determines the ability of test compounds to inhibit phosphorylation of Serine 473 in Akt as assessed using Acumen Explorer technology (Acumen Bioscience Limited), a plate reader that can be used to rapidly quantitate features of images generated by laser-scanning.
A MDA-MB-468 human breast adenocarcinoma cell line (LGC Promochem, Teddington, Middlesex, UK, Catalogue No. HTB-132) was routinely maintained at 37° C. with 5% CO2 up to a confluency of 70-90% in DMEM containing 10% heat-inactivated FCS and 1% L-glutamine.
For the assay, the cells were detached from the culture flask using ‘Accutase’ (Innovative Cell Technologies Inc., San Diego, Calif., USA; Catalogue No. AT104) using standard tissue culture methods and resuspended in media to give 1.7×10^5 cells per ml. Aliquots (90 μl) were seeded into each of the inner 60 wells of a black Packard 96 well plate (PerkinElmer, Boston, Mass., USA; Catalogue No. 6005182) to give a density of ˜15000 cells per well. Aliquots (90 μl) of culture media were placed in the outer wells to prevent edge effects. The cells were incubated overnight at 37° C. with 5% CO2 to allow them to adhere.
On day 2, the cells were treated with test compounds and incubated for 2 hours at 37° C. with 5% CO2. Test compounds were prepared as 10 mM stock solutions in DMSO and serially diluted as required with growth media to give a range of concentrations that were 10-fold the required final test concentrations. Aliquots (10 μl) of each compound dilution were placed in a well (in triplicate) to give the final required concentrations. As a minimum response control, each plate contained wells having a final concentration of 100 μM LY294002 (Calbiochem, Beeston, UK, Catalogue No. 440202). As a maximum response control, wells contained 1% DMSO instead of test compound. Following incubation, the contents of the plates were […] by treatment with a 1.6% aqueous formaldehyde solution (Sigma, Poole, Dorset, UK, Catalogue No. F1635) at room temperature for 1 hour.
All subsequent aspiration and wash steps were carried out using a Tecan 96 well late washer (aspiration speed 10 mm/sec). The fixing solution was removed and the contents of the plates were washed with phosphate-buffered saline (PBS; 50 μl; Gibco, Catalogue No. 10010015). The contents of the plates were treated for 10 minutes at room temperature with an aliquot (50 μl) of a cell permeabilisation buffer consisting of a mixture of PBS and 0.5% Tween-20. […] An aliquot of PBS (50 μl) was added to each well and the plates were sealed with black plate sealers and the fluorescence signal was detected and analysed.
Fluorescence dose response data obtained with each compound were analysed and the degree of inhibition of Serine 473 in Akt was expressed as an IC50 value.

p110α Type Ia human PI3K = target: T1, p110α Type Ia human PI3K (Homo sapiens, UniProt P42336); experiment: Test (a) In Vitro PI3K Enzyme Assay (AlphaScreen); format: biochemical; details: read-out: IC50 versus p110α PI3K
T1 construct: full length DNA of each of the p110α, p110β and p110δ Type Ia human PI3K p110 isoforms; 6-His; made in house; host or cells: baculovirus expression system (Sf9 is named only for PI3Kγ)
T1 sequence (P42336 whole entry, canonical isoform): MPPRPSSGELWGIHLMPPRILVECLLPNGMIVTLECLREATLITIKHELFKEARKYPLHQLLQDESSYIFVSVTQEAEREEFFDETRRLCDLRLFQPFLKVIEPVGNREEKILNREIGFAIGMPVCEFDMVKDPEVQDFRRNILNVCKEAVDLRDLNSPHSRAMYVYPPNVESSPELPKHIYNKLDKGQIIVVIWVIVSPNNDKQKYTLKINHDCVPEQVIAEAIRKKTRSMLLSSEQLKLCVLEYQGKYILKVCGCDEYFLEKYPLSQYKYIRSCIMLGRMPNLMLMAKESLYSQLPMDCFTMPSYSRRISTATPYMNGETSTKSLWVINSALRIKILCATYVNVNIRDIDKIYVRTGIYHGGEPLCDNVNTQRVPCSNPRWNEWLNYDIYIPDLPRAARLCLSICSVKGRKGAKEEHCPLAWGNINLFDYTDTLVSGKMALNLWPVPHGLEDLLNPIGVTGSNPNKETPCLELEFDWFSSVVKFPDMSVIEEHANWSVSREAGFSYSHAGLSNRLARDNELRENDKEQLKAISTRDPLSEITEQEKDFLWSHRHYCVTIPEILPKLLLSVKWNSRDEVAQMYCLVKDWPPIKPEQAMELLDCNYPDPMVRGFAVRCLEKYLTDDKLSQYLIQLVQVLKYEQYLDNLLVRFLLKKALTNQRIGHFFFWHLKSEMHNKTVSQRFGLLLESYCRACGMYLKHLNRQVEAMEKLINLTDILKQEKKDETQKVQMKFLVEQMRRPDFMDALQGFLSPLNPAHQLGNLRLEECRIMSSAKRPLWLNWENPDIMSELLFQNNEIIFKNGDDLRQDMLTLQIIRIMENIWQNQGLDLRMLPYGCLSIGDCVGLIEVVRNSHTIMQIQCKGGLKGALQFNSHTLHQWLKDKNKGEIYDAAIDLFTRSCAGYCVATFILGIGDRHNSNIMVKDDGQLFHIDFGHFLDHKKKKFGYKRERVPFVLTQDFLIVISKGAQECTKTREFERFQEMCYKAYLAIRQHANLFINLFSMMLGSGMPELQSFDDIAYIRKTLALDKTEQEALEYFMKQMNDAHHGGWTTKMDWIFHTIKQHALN
T1 sequence (P27986 whole entry partner, canonical isoform): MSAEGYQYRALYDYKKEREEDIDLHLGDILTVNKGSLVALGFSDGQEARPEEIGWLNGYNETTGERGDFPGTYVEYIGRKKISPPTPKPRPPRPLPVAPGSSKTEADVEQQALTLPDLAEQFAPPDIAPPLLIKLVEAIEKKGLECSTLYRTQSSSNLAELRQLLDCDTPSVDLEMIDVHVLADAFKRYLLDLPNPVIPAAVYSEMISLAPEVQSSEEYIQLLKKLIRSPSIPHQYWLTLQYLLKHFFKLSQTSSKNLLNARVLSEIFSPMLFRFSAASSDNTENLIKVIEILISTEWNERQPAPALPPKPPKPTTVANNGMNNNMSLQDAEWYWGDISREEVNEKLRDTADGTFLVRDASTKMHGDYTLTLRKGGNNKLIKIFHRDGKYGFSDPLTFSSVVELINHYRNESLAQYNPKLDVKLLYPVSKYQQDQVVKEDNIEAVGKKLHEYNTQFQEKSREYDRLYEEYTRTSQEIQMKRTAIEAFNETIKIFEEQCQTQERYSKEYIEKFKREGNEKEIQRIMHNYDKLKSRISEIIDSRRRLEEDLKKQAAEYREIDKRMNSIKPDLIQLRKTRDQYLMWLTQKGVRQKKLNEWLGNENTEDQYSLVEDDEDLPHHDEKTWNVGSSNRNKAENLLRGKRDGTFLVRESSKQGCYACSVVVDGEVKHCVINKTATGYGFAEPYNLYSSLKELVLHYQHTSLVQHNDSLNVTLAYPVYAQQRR
Description: The assay used AlphaScreen technology (Gray et al., Analytical Biochemistry, 2003, 313: 234-245) to determine the ability of test compounds to inhibit phosphorylation by recombinant Type I PI3K enzymes of the lipid PI(4,5)P2.
DNA fragments encoding human PI3K catalytic and regulatory subunits were isolated from cDNA libraries using standard molecular biology and PCR cloning techniques. The selected DNA fragments were used to generate baculovirus expression vectors. In particular, full length DNA of each of the p110α, p110β and p110δ Type Ia human PI3K p110 isoforms (EMBL Accession Nos. HSU79143, S67334, Y10055 for p110α, p110β and p110δ respectively) were sub-cloned into a pDEST10 vector (Invitrogen Limited, Fountain Drive, Paisley, UK). The vector is a Gateway-adapted version of Fastbac1 containing a 6-His epitope tag. A truncated form of Type Ib human PI3K p110γ isoform corresponding to amino acid residues 144-1102 (EMBL Accession No. X8336A) and the full length human p85α regulatory subunit (EMBL Accession No. HSP13KIN) were also sub-cloned into pFastBac1 vector containing a 6-His epitope tag. The Type Ia p110 constructs were co-expressed with the p85α regulatory subunit. Following expression in the baculovirus system using standard baculovirus expression techniques, expressed proteins were purified using the His epitope tag using standard purification techniques.
DNA corresponding to amino acids 263 to 380 of human general receptor for phosphoinositides (Grp1) PH domain was isolated from a cDNA library using standard molecular biology and PCR cloning techniques. The resultant DNA fragment was sub-cloned into a pGEX 4T1 E. coli expression vector containing a GST epitope tag (Amersham Pharmacia Biotech, Rainham, Essex, UK) as described by Gray et al., Analytical Biochemistry, 2003, 313: 234-245). The GST-tagged Grp1 PH domain was expressed and purified using standard techniques.
Test compounds were prepared as […] stock solutions in DMSO and diluted into water as required to give a range of final assay concentrations. Aliquots (2 μl) of each compound dilution were placed into a well of a Greiner 384-well low volume (LV) white polystyrene plate (Greiner Bio-one, Brunel Way, Stonehouse, Gloucestershire, UK Catalogue No. 784075). […]
Biotinylated-DiC8-PI(3,4,5)P3 (50 nM; Cell Signals Inc., Catalogue No. 107), recombinant purified GST-Grp1 PH protein (2.5 nM) and AlphaScreen Anti-GST donor and acceptor beads (100 ng; Packard Bioscience Limited, Station Road, Pangbourne, Berkshire, UK, Catalogue No. 6760603M) were added and the assay plates were left for about 5 to 20 hours at room temperature in the dark. The resultant signals arising from laser light excitation at 680 nm were read using a Packard AlphaQuest instrument. […]

IC50 [1]: ~0.02 µM | IC50 (p110α Type Ia human PI3K): ~0.01 µM
Compound: CC(=O)Nc1nc(C)c(-c2cnc(Cl)c(NS(=O)(=O)c3ccccc3)c2)s1 [Example 13, N-{5-[6-Chloro-5-(phenylsulfonylamino)pyridin-3-yl]-4-methyl-1,3-thiazol-2-yl}acetamide trifluoroacetate]

Source: patent US7868188B2, “5-heteroaryl thiazoles and their use as PI3K inhibitors” (AstraZeneca AB, priority 2004, dated 2011)
